{"source": "patent US20140287997A1", "about": "“USE OF GROWTH HORMONE OR GROWTH HORMONE RECEPTOR AGONISTS TO PREVENT OR TREAT STRESS-SENSITIVE PSYCHIATRIC ILLNESS” (Massachusetts Institute of Technology, priority 2013, published 2014)", "key": {"[1]": {"molecular_target": "T1, ghrelin receptor in BLA cells (Rattus norvegicus, UniProt O08725)", "T1 construct": "short-term cultures were generated of BLA cells and measured GH protein in the media following treatment with either MK-0677 or vehicle; endogenous in cells; host or cells: short-term primary cultures of basolateral amygdala (BLA) cells", "T1 sequence (O08725 whole entry)": "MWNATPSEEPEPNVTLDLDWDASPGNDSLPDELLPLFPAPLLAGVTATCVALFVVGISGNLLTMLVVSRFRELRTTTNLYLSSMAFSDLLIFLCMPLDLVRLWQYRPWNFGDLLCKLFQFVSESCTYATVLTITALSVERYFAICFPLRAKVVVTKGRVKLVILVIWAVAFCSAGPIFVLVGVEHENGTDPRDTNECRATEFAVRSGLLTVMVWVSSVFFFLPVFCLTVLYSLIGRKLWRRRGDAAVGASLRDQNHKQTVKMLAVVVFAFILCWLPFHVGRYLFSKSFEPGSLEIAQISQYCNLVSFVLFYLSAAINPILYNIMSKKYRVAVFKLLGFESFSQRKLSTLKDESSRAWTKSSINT", "assay": "GH release from short-term BLA cell cultures", "assay_type": "cell-based", "settings": "versus vehicle, P<0.05", "from_the_text": "To determine whether ghrelin receptor stimulation in amygdala triggers the release of GH as it does from the pituitary,^43 short-term cultures were generated of BLA cells and measured GH protein in the media following treatment with either MK-0677 or vehicle."}, "[2]": {"tested_on": "GH-mediated signaling in the BLA", "assay": "Auditory fear conditioning after intra-BLA AAV (GHA or GFP) and 10 days systemic MK-0677 or saline", "assay_type": "in vivo, rat", "settings": "repeated systemic MK-0677 for 10 days", "procedure": "An AAV viral construct to overexpress a mutant form of the rat GH protein (GHA) that acts as a functional antagonist to endogenous GH was generated.^49,50 Following infusion of AAV to overexpress either GHA or a control protein (GFP) (FIG. 5f), rats were permitted to recover for 5 weeks. After recovery, rats that were infused with GHA received daily injections of either the ghrelin receptor agonist MK-0677 (MK) or saline (SAL) for 10 days. […] At 24 h after the final injection, all rats were subjected to auditory fear conditioning, followed by assessment of long-term auditory fear memory in a subsequent session 48 h later."}, "rats [3]": {"tested_on": "rats", "assay": "Sucrose preference (measuring hedonia) as a measure of depression", "assay_type": "in vivo, rat", "settings": "repeated ghrelin receptor stimulation", "from_the_text": "Sucrose preference (measuring hedonia) as a measure of depression with low dose MK0677 or high dose MK0677 was also examined. […] Repeated ghrelin receptor stimulation (mimicking one effect of chronic stress, which is to enhance the circulating levels of ghrelin and thus ghrelin signaling) induces depressive behaviors in rats."}, "rats [4]": {"tested_on": "rats", "assay": "Forced swim as a measure of depression", "assay_type": "in vivo, rat", "settings": "high dose, repeated ghrelin receptor stimulation", "from_the_text": "Forced swim as a measure of depression was also examined. […] Repeated ghrelin receptor stimulation (mimicking one effect of chronic stress, which is to enhance the circulating levels of ghrelin and thus ghrelin signaling) induces depressive behaviors in rats."}}}
{"smiles": "CC(C)(N)C(=O)N[C@H](COCc1ccccc1)C(=O)N1CCC2(CC1)CN(S(C)(=O)=O)c1ccccc12", "note": "[MK-0677]", "values": [{"measurement": "GH protein released in the media", "setting": "[1]", "result": "significantly elevated release of GH"}, {"measurement": "long-term auditory fear memory", "setting": "[2]", "result": "fear-enhancing effects"}, {"measurement": "sucrose preference (hedonia)", "setting": "rats [3]; high dose", "result": "led to anhedonia"}, {"measurement": "sucrose preference (hedonia)", "setting": "rats [3]; low dose", "result": "led to anhedonia"}, {"measurement": "forced swim behaviour", "setting": "rats [4]", "result": "led to immobility in the forced swim"}]}
